This data set deals with T1, MDR1 (Homo sapiens, UniProt P08183).
T1 construct: The cDNA encoding respective transporters were synthetized and cloned by GenScript; host or cells: HEK293 (lentiviral transduction), membrane vesicles
In words: Vesicular transport inhibition assay, MDR1 membrane vesicles. The class given is biochemical. Conditions: for Igut/IC50 ratio: MDR1, Igut = dose/250 mL, 500 mg dose of UT extract, ICH M12 cut-off 10; for pIC50: oxindole alkaloids, substrate NMQ, read-out: IC50 (95% CI of IC50). From the text:
The human embryonic kidney 293 (HEK293) cell line was purchased from Invitrogen/ThermoFisher (Waltham, MA, USA). Madin–Darby canine kidney II (MDCKII) wild type cells were obtained from the European Collection of Authenticated Cell Cultures (ECACC catalog no. 00062107). HEK293 cells overexpressing the human uptake OATP1B1 (NCBI Reference Sequence: NM_006446.4), OATP1B3 (NM_019844), OATP2B1 (NM_007256), OATP1A2 (NM_134431), OAT1-3 (BC033682.1; NM_006672.3; BC022387), OCT1-3 (BC126364.1; NM_003058; NM_021977), OCTN1 (NM_003059.3), NTCP (NM_003049.3), MATE1 (NM_018242.3), MATE2K (NM_001099646.2), ENT4 (NM_001040661.1), SGLT2 (AJ133127.1), ASCT1/2 (NM_003038.5; NM_005628.3), LAT1/2 (NM_003486.6; NM_012244.4), and THTR1/2 (NM_006996; NM_025243) and mock and human efflux BCRP (NM_004827.2), BSEP (NM_003742.2), MDR1 (NM_000927.4), and MRP1-5 (NM_004996; NM_000392.4; BC137347.1; NM_005845.4; NM_005688.2) transporters as well as MDCKII overexpressing human ENT1/2 (NM_001078177; NM_001532.2) and URAT1 (BC053348) transporters were created by lentiviral transduction. The cDNA encoding respective transporters were synthetized and cloned by GenScript (Piscataway, NJ, USA). The production of lentivirus supernatants, the transduction of the cells, cloning, functional characterization, and validation were performed by Charles River Laboratories Hungary Kft. (Budapest, Hungary).
Membrane vesicles were prepared from ABC transporter-overexpressing HEK293 cells by Charles River Laboratories Hungary Kft. as described previously in detail. Vesicles were frozen in liquid nitrogen and stored at −80 °C.
Vesicular transport inhibition assays were performed using a rapid filtration technique. In brief, the appropriate amount of the protein of each membrane vesicle was mixed with either the extract or isopteropodine, mitraphylline, or uncarine D at one concentration or with their half dilution series from 150 µg/mL or from 100 µM, the suitable transporter substrate, and the assay buffer on ice. Reaction mixtures were preincubated for 15 min at 37 °C with shaking at 250 rpm. Following preincubation, 4 mM Mg-ATP or AMP was added and incubated according to Table S3. Vesicular transport was terminated by adding an ice-cold washing buffer, and the reaction mix was transferred to a MSFBN6B10 filter plate (Merck) for filtration. The filter plates were then dried at 40 °C for 4 h, and radiolabeled substrates retained in the vesicles were detected by liquid scintillation counting as described above. For fluorescent substrates, accumulation was measured with a Clariostar^plus microplate reader (BMG Labtech GmbH, Ortenberg, Germany).
The transporter-mediated uptake and ATP-dependent transport were determined by subtracting the activity of the control cell/transporter abundant-membrane in the presence of AMP from the activity of the transporter-overexpressing cell/transporter-abundant membrane in the presence of ATP. The relative transporter-specific accumulation was expressed as the percent of DMSO activity. The results were presented as the mean ± SEM from 3 parallels. More than a 20% reduction in transport activity was considered as inhibition. For the IC50 determination, dose–response curves were fitted using a 4-parameter nonlinear model in GraphPad Prism version 9.0. Confidence intervals (CIs) of 95% were also determined.
Table S3 – Vesicular transport inhibition assay details.
These parameters were set during previous validations. TC: taurocholic acid, E3S: estrone 3 -sulfate,
NMQ: N-methyl-quinidine, E217βG: β-Estradiol 17-(β-D-glucuronide), DHEAS:
Dehydroepiandrosterone sulfate, CDCF: 5(6)-Carboxy-2',7-dichlorofluorescein B.
Parental Transporter Incubation Substrate Substrate µg Incubation
cell time (min) concentration membrane/ temperature

Results on two compounds are retold here after PMC11597817, “Modulation of Multispecific Transporters by Uncaria tomentosa Extract and Its Major Phytoconstituents” (Pharmaceutics, 2024).

pIC50: −log10 of the molar value. Where two headings read alike, the source gives them in different places.

T1 sequence (P08183 whole entry): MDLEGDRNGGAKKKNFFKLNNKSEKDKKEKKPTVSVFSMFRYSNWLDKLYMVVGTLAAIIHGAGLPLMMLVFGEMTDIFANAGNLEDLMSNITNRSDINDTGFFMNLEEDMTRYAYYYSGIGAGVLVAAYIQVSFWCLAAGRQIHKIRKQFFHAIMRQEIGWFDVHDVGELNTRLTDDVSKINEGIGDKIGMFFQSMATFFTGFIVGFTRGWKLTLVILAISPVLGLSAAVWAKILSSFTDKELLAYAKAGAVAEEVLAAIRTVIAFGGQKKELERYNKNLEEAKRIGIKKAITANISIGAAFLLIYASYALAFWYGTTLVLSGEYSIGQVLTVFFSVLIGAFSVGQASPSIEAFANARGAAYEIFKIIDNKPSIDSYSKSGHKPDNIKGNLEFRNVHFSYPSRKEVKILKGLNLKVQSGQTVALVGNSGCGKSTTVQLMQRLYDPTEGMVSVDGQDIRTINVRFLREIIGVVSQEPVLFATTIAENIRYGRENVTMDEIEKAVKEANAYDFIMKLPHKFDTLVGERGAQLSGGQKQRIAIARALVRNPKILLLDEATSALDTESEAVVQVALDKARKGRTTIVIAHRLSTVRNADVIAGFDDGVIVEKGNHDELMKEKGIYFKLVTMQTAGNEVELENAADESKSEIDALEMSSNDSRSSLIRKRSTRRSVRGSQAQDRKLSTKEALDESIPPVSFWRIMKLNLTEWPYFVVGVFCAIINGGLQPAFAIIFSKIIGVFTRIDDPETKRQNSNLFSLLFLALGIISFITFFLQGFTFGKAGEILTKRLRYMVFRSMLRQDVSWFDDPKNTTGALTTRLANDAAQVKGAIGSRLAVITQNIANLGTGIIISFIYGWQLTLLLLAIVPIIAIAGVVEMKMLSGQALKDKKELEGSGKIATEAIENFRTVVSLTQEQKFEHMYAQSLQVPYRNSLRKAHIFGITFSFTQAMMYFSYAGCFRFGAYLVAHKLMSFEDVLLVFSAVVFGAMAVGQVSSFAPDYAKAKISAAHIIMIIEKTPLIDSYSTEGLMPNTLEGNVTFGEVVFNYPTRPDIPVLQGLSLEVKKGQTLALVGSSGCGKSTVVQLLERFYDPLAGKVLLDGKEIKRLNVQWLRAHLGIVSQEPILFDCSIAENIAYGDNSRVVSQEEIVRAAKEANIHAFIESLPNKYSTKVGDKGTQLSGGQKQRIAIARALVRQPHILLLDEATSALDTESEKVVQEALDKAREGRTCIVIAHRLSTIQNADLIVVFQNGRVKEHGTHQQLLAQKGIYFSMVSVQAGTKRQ

Consider `COC(=O)C1=CO[C@@H](C)[C@H]2CN3CC[C@]4(C(=O)Nc5ccccc54)[C@@H]3C[C@H]12` [mitraphylline], for which the Igut/IC50 ratio is recorded as below 10 and the negative-log IC50 (pIC50) was 4.55. Further, for the setting “in the presence of the alkaloid (100 µM, Figure 4)”, the transporter-mediated substrate accumulation entry was “below 50%”. Further, the pIC50 (listed as Mitraphylline) was 4.55.

In the case of `COC(=O)C1=CO[C@@H](C)[C@@H]2CN3CC[C@@]4(C(=O)Nc5ccccc54)[C@@H]3C[C@H]12` [isopteropodine], the Igut/IC50 ratio is on record as below 10 and the negative logarithm of the IC50 (pIC50) was 4.55. In addition, the “inhibitory effect on transporter-specific transport” value (100 µM alkaloid) is “significantly inhibited”. Moreover, for the setting “listed as Isopteropodine”, the Igut/IC50 ratio is listed as 0.82.

As a reminder, the pIC50 is −log10 of the IC50, conventionally taken in molar units.
